Source: PubChem BioAssay AID248 (DTP/NCI, 2004)
“And” between values parts separate entries of the source, which are not always exact repeats. Equal entries are not always repeated. Inconclusive results and toxic doses are left out.

Test system: L1210 leukemia ip in BDF1 mice, survival T/C
Experiment: NCI In Vivo Anticancer Drug Screen. Data for tumor model L1210 Leukemia (intraperitoneal) in B6D2F1 (BDF1) mice
Conditions: endpoint: mean survival time, higher = longer survival
In short: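 Mice bearing the transplanted tumor received compound or vehicle. Survival of the treated group was divided by that of the vehicle-treated control group to give the ratio.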

[1] = dose: 100.0 mg/kg/injection, schedule: Q01DX001 (ip), vehicle: saline
[2] = dose: 400.0 mg/kg/injection, schedule: Q01DX001 (ip), vehicle: saline
[3] = dose: 12.5 mg/kg/injection, schedule: Q01DX009 (ip), vehicle: Klucel (hydroxypropylcellulose) (HPC)
[4] = dose: 100.0 mg/kg/injection, schedule: Q01DX009 (ip), vehicle: saline with Tween-80
[5] = dose: 100.0 mg/kg/injection, schedule: Q04DX003 (ip), vehicle: saline
[6] = dose: 200.0 mg/kg/injection, schedule: Q04DX003 (ip), vehicle: saline
[7] = dose: 200.0 mg/kg/injection, schedule: Q01DX001 (ip), vehicle: saline
[8] = dose: 100.0 mg/kg/injection, schedule: Q04DX003 (ip), vehicle: Klucel (hydroxypropylcellulose) (HPC)
[9] = dose: 100.0 mg/kg/injection, schedule: Q01DX001 (ip), vehicle: other
[10] = dose: 200.0 mg/kg/injection, schedule: Q01DX001 (ip), vehicle: other
[11] = dose: 400.0 mg/kg/injection, schedule: Q01DX001 (ip), vehicle: other
[12] = dose: 100.0 mg/kg/injection, schedule: Q01DX001 (ip), vehicle: Klucel (hydroxypropylcellulose) (HPC)
[13] = dose: 200.0 mg/kg/injection, schedule: Q01DX001 (ip), vehicle: Klucel (hydroxypropylcellulose) (HPC)
[14] = dose: 200.0 mg/kg/injection, schedule: Q04DX003 (ip), vehicle: Klucel (hydroxypropylcellulose) (HPC)
[15] = dose: 400.0 mg/kg/injection, schedule: Q01DX001 (ip), vehicle: Klucel (hydroxypropylcellulose) (HPC)
[16] = dose: 400.0 mg/kg/injection, schedule: Q04DX003 (ip), vehicle: Klucel (hydroxypropylcellulose) (HPC)
[17] = dose: 100.0 mg/kg/injection, schedule: Q04DX003 (ip), vehicle: saline with Tween-80
[18] = dose: 100.0 mg/kg/injection, schedule: Q01DX009 (ip), vehicle: Klucel (hydroxypropylcellulose) (HPC)
[19] = dose: 200.0 mg/kg/injection, schedule: Q01DX009 (ip), vehicle: Klucel (hydroxypropylcellulose) (HPC)
[20] = dose: 400.0 mg/kg/injection, schedule: Q01DX009 (ip), vehicle: Klucel (hydroxypropylcellulose) (HPC)

In the case of CCOc1ccc(/C=N/NC(=O)c2cccc3ccccc23)cc1OCC, the T/C [1] is reported as 90 % of control and the T/C [2] is reported as 90 % of control.
For NNC(=O)c1ccc(Cl)cc1Cl, the T/C (dose: 6.25 mg/kg/injection, schedule: Q04DX003 (ip), vehicle: saline sonified) was 97 % of control, the T/C [3] was 96 % of control and the T/C (dose: 12.5 mg/kg/injection, schedule: Q04DX003 (ip), vehicle: saline sonified) was 101 % of control. For the same compound, the T/C (dose: 25.0 mg/kg/injection, schedule: Q01DX009 (ip), vehicle: Klucel (hydroxypropylcellulose) (HPC)) was 106 % of control and the T/C (dose: 25.0 mg/kg/injection, schedule: Q04DX003 (ip), vehicle: saline sonified) was 95 % of control.
In the case of CC1(C)COC(CC2CCCCC2)=N1, the T/C (dose: 25.0 mg/kg/injection, schedule: Q01DX009 (ip), vehicle: saline with Tween-80) is reported as 105 % of control, the T/C (dose: 50.0 mg/kg/injection, schedule: Q01DX009 (ip), vehicle: saline with Tween-80) is reported as 102 % of control and the T/C (dose: 50.0 mg/kg/injection, schedule: Q04DX003 (ip), vehicle: saline) is reported as 94 % of control. For the same compound, the T/C [4] was 102 % of control, the T/C [5] was 91 % of control and the T/C (dose: 200.0 mg/kg/injection, schedule: Q01DX009 (ip), vehicle: saline with Tween-80) was 96 % of control. For the same compound, the T/C [6] was 86 % of control.
In the case of O=C(O)c1ccccc1-c1c2ccc(=O)c(Br)c-2oc2c(Br)c(O)ccc12, the T/C (dose: 50.0 mg/kg/injection, schedule: Q01DX001 (ip), vehicle: saline) is reported as 104 % of control, the T/C [1] is reported as 96 % of control and the T/C [7] is reported as 98 % of control. The T/C [2] was 102 % of control.
C=C1C(=O)OC2/C=C(\C)C(O)C/C=C(/C)CCC12 (stereo unspecified) was tested, and the T/C (dose: 25.0 mg/kg/injection, schedule: Q04DX003 (ip), vehicle: Klucel (hydroxypropylcellulose) (HPC)) was 96 % of control, the T/C (dose: 50.0 mg/kg/injection, schedule: Q04DX003 (ip), vehicle: Klucel (hydroxypropylcellulose) (HPC)) was 102 % of control and the T/C [8] was 100 % of control.
CC1C(Cl)(Cl)C1(C)/C=C/C1C(C)(C)C1(Cl)Cl (stereo unspecified) was tested, and the T/C [9] was 260 % of control, the T/C [1] was 106 % of control and the T/C (dose: 178.0 mg/kg/injection, schedule: Q01DX001 (ip), vehicle: saline) was 101 % of control. The T/C [10] was 117 % of control, the T/C [7] was 108 % of control and the T/C (dose: 267.0 mg/kg/injection, schedule: Q01DX001 (ip), vehicle: saline) was 97 % of control. For the same compound, the T/C [11] was 202 % of control, the T/C [2] was 95 % of control and 97 % of control and the T/C (dose: 600.0 mg/kg/injection, schedule: Q01DX001 (ip), vehicle: saline) was 88 % of control.
In the case of CCCCCC(=O)Oc1c(C(C)(C)C)cc([N+](=O)[O-])c(C)c1[N+](=O)[O-], the T/C (dose: 100.0 mg/kg/injection, schedule: Q04DX002 (ip), vehicle: saline) is reported as 93 % of control and the T/C (dose: 200.0 mg/kg/injection, schedule: Q04DX002 (ip), vehicle: saline) is reported as 93 % of control.
With O=C1OCC(O)(c2ccccc2)C1c1ccccc1 (stereo unspecified) the T/C (dose: 55.0 mg/kg/injection, schedule: Q01DX Z (ip), vehicle: methylcellulose (MC)) was 98 % of control, the T/C (dose: 83.0 mg/kg/injection, schedule: Q01DX Z (ip), vehicle: methylcellulose (MC)) was 118 % of control and the T/C (dose: 125.0 mg/kg/injection, schedule: Q01DX Z (ip), vehicle: methylcellulose (MC)) was 104 % of control.
CCCCCCCNC(=O)CI was tested, and the T/C [1] was 103 % of control and the T/C [7] was 111 % of control.
In the case of CC(=O)OC1(C(C)(C)C)C(=O)C(=[N+]=[N-])C(O)(C(C)(C)C)C(=O)C1=[N+]=[N-] (stereo unspecified), the T/C [9] is reported as 97 % of control, the T/C [10] is reported as 97 % of control and the T/C [11] is reported as 97 % of control.
O=C(O)C1CCCCC1C(=O)O (stereo unspecified) was tested, and the T/C [12] was 103 % of control, the T/C [8] was 101 % of control and the T/C [5] was 95 % of control. The T/C [13] was 91 % of control, the T/C [14] was 97 % of control and the T/C [6] was 98 % of control. The T/C [15] was 93 % of control, the T/C [16] was 97 % of control and the T/C (dose: 400.0 mg/kg/injection, schedule: Q04DX003 (ip), vehicle: saline) was 98 % of control.
In the case of O=[N+]([O-])c1ccc2conc2c1, the T/C (dose: 50.0 mg/kg/injection, schedule: Q01DX001 (ip), vehicle: carboxymethylcellulose (CMC)) is reported as 94 % of control, the T/C (dose: 100.0 mg/kg/injection, schedule: Q01DX001 (ip), vehicle: carboxymethylcellulose (CMC)) is reported as 97 % of control and the T/C (dose: 200.0 mg/kg/injection, schedule: Q01DX001 (ip), vehicle: carboxymethylcellulose (CMC)) is reported as 92 % of control.
CC(=[N-])CC(C)=O.CC(=[N-])CC(C)=O.[Ni+2] was tested, and the T/C (dose: 3.0 mg/kg/injection, schedule: Q01DX009 (ip), vehicle: Klucel (hydroxypropylcellulose) (HPC)) was 90 % of control, the T/C (dose: 3.12 mg/kg/injection, schedule: Q01DX001 (ip), vehicle: Klucel (hydroxypropylcellulose) (HPC)) was 97 % of control and the T/C (dose: 3.12 mg/kg/injection, schedule: Q04DX003 (ip), vehicle: Klucel (hydroxypropylcellulose) (HPC)) was 98 % of control. For the same compound, the T/C (dose: 3.13 mg/kg/injection, schedule: Q01DX009 (ip), vehicle: Klucel (hydroxypropylcellulose) (HPC)) was 97 % of control, the T/C (dose: 6.0 mg/kg/injection, schedule: Q01DX009 (ip), vehicle: Klucel (hydroxypropylcellulose) (HPC)) was 95 % of control and the T/C (dose: 6.25 mg/kg/injection, schedule: Q01DX001 (ip), vehicle: Klucel (hydroxypropylcellulose) (HPC)) was 100 % of control. For the same compound, the T/C (dose: 6.25 mg/kg/injection, schedule: Q01DX009 (ip), vehicle: Klucel (hydroxypropylcellulose) (HPC)) was 97 % of control, the T/C (dose: 6.25 mg/kg/injection, schedule: Q04DX003 (ip), vehicle: Klucel (hydroxypropylcellulose) (HPC)) was 97 % of control and 106 % of control and the T/C (dose: 12.0 mg/kg/injection, schedule: Q01DX009 (ip), vehicle: Klucel (hydroxypropylcellulose) (HPC)) was 96 % of control. The T/C (dose: 12.5 mg/kg/injection, schedule: Q01DX001 (ip), vehicle: Klucel (hydroxypropylcellulose) (HPC)) was 105 % of control, the T/C [3] was 98 % of control and the T/C (dose: 12.5 mg/kg/injection, schedule: Q04DX003 (ip), vehicle: Klucel (hydroxypropylcellulose) (HPC)) was 102 % of control and 103 % of control. For the same compound, the T/C (dose: 25.0 mg/kg/injection, schedule: Q01DX001 (ip), vehicle: Klucel (hydroxypropylcellulose) (HPC)) was 100 % of control.
In the case of Cc1ccccc1[As](c1ccccc1C)c1ccccc1C, the T/C [17] is reported as 87 % of control.
For COc1ccc(COC(=O)Nc2cccc(Cl)c2)cc1OC, the T/C [18] was 96 % of control, the T/C [19] was 102 % of control and the T/C [20] was 103 % of control.
O=c1ccc2ccccc2[nH]1 was tested, and the T/C [12] was 108 % of control, the T/C [9] was 105 % of control and the T/C [13] was 111 % of control. The T/C [10] was 92 % of control and the T/C [15] was 113 % of control.
In the case of COC(=O)c1ccc([N+](=O)[O-])c(O)c1, the T/C [18] is reported as 96 % of control, the T/C [8] is reported as 96 % of control and the T/C [19] is reported as 98 % of control. The T/C [14] was 100 % of control, the T/C [20] was 88 % of control and the T/C [16] was 102 % of control.
With NC=O the T/C (dose: 62.5 mg/kg/injection, schedule: Q01DX009 (ip), vehicle: saline) was 112 % of control, the T/C (dose: 62.5 mg/kg/injection, schedule: Q01DX015 (ip), vehicle: saline) was 95 % of control and the T/C [1] was 94 % of control and 109 % of control. For the same compound, the T/C (dose: 125.0 mg/kg/injection, schedule: Q01DX009 (ip), vehicle: saline) was 107 % of control, the T/C (dose: 125.0 mg/kg/injection, schedule: Q01DX015 (ip), vehicle: saline) was 101 % of control and the T/C [7] was 101 % of control and 92 % of control. The T/C (dose: 250.0 mg/kg/injection, schedule: Q01DX009 (ip), vehicle: saline) was 118 % of control, the T/C (dose: 250.0 mg/kg/injection, schedule: Q01DX015 (ip), vehicle: saline) was 110 % of control and the T/C [2] was 100 % of control and 101 % of control. The T/C (dose: 500.0 mg/kg/injection, schedule: Q01DX015 (ip), vehicle: saline) was 92 % of control and the T/C (dose: 800.0 mg/kg/injection, schedule: Q01DX001 (ip), vehicle: saline) was 106 % of control.
O=C(Nc1ccccc1)Nc1cc(C(F)(F)F)ccc1Cl was tested, and the T/C [4] was 86 % of control, the T/C [17] was 91 % of control and the T/C (dose: 200.0 mg/kg/injection, schedule: Q04DX003 (ip), vehicle: saline with Tween-80) was 90 % of control. The T/C (dose: 400.0 mg/kg/injection, schedule: Q01DX009 (ip), vehicle: saline with Tween-80) was 92 % of control and the T/C (dose: 400.0 mg/kg/injection, schedule: Q04DX003 (ip), vehicle: saline with Tween-80) was 95 % of control.
